Test results as given in US11479814B2, “Compounds for use in PCR systems and applications thereof” (LIFE TECHNOLOGIES CORPORATION, priority 2013, dated 2022).

Tested on: polymerase
Assay: Amplification plots and Cq of gene targets, Dt4 compared with Tween 20 and Brij-58
Format: biochemical
Conditions: B2M, GAPDH, RPLPO; FIGS. 16-18
Source text: All amplification plots shown herein graphically represent target nucleic acid amplification as ΔRn (y-axis) as a function of cycle number (x-axis).
FIGS. 7A through 7D and FIGS. 8A through 8D provide a comparison between Dt4 and Tween® 20 in amplifying four different targets (B2M, GAPDH, RPLPO, and GUSB).
FIG. 9 provides a comparison between Dt4 and Tween® 20 in amplifying various different targets.
FIGS. 11A and 11B, FIGS. 12A and 12B, FIGS. 13A and 13B, FIGS. 14A and 14B, FIGS. 15A and 15B show amplification plots comparing the activity of Dt4 to Brij-58 and Tween® 20 at various concentrations in amplifying HPRT1 or PPIA.
FIGS. 16-18 illustrate that Dt4 may be used at a lower concentration than Tween® 20 in various reactions (e.g., 0.002% Dt4 compared to 0.01% Tween® 20).

**Q.** How did the “concentration used in amplification reactions” value turn out when Tween® 20 was run?
**A.** 0.01%
